Test results published in ChEMBL document CHEMBL1800049, “Aryl 1,4-diazepane compounds as potent and selective CB2 agonists: optimization of drug-like properties and target independent parameters” (Bioorg Med Chem Lett, 2011).

Legend:
[1] = Oral bioavailability in cynomolgus monkey; format: ADME, organism-based, Macaca fascicularis; settings: in vivo
[2] = Permeability from basolateral to apical side of human Caco2 cells at 10 uM after […] by HPLC-MS/MS analysis; format: ADME, cell-based; settings: Caco-2, read-out: permeability
[3] = Permeability from apical to basolateral side of human Caco2 cells at 10 uM after […] by HPLC-MS/MS analysis; format: ADME, cell-based; settings: Caco-2, read-out: permeability

Row | Compound | Papp B→A at […], 10 µM [2] [×10⁻⁶ cm/s] | Papp A→B at […], 10 µM [3] [×10⁻⁶ cm/s] | bioavailability [1] [%]
1 | CC(C)(C)c1cc(NC(=O)N2CCCN(C(=O)C3CCOCC3)CC2)no1 | 42 | 7 | 3
2 | CC(C)(C)c1ccc2oc(N3CCCN(C(=O)C4CCOCC4)CC3)nc2c1 | 64 | 49 | –
3 | O=C(C1CCOCC1)N1CCCN(c2nc(C(F)(F)F)c(Cl)s2)CC1 | 70 | 53 | –

Continued, in another order:

Row | Papp B→A at […], 10 µM [2] [×10⁻⁶ cm/s] | Papp A→B at […], 10 µM [3] [×10⁻⁶ cm/s] | Compound | bioavailability [1] [%]
4 | 71 | 62 | O=C(C1CCOCC1)N1CCCN(c2nc3ccc(Cl)cc3s2)CC1 | –
5 | 61 | 67 | O=C(C1CCOCC1)N1CCCN(c2nc(-c3ccccc3)ns2)CC1 | –
